Test results as given in US20240246942A1, “KINASE INHIBITORS FOR THE TREATMENT OF NEURODEGENERATIVE DISEASES” (priority 2020, published 2024).

What was measured:
Assay in all cases: biochemical
[1] = target: T1, panel of 374 wild-type kinases (Homo sapiens, UniProt P49137); details: read-out: % Enzyme Activity (relative to DMSO controls), MAPKAPK2
T1 construct: purchased Reaction Biology Corporation

[2] = target: T2, panel of 374 wild-type kinases (Homo sapiens, UniProt Q13188); details: read-out: % Enzyme Activity (relative to DMSO controls), MST2/STK3
T2 construct: purchased Reaction Biology Corporation
T2 sequence (Q13188 1-491): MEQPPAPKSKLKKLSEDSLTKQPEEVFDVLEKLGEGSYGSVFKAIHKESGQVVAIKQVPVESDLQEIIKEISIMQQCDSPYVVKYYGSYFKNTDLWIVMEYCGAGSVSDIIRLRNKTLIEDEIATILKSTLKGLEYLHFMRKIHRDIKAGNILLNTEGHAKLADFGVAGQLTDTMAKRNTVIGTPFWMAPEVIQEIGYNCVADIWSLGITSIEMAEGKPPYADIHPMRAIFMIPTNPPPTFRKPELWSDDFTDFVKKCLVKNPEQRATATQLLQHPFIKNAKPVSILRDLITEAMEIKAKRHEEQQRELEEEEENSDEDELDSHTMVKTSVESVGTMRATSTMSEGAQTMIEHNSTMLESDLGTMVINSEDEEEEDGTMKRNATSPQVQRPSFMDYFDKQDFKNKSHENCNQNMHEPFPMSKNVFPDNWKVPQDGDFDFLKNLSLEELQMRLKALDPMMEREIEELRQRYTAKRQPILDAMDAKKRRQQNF

[3] = target: T3, panel of 374 wild-type kinases (Homo sapiens, UniProt Q16539); details: P38a/MAPK14, read-out: % Enzyme Activity (relative to DMSO controls)
T3 construct: purchased Reaction Biology Corporation

[4] = target: T4, panel of 374 wild-type kinases (Homo sapiens, UniProt Q9UQB9); details: read-out: % Enzyme Activity (relative to DMSO controls), Aurora C
T4 construct: purchased Reaction Biology Corporation
T4 sequence (Q9UQB9 1-309): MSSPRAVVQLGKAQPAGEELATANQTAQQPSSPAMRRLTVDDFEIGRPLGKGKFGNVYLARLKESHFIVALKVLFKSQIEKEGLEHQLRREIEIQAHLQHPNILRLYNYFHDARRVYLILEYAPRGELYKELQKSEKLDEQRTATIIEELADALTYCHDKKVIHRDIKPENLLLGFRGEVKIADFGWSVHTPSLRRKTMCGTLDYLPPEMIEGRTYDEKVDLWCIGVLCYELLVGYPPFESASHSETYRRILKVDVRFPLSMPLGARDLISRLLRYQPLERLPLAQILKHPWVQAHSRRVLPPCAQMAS

[5] = target: T5, panel of 374 wild-type kinases (Homo sapiens, UniProt P06239); details: read-out: % Enzyme Activity (relative to DMSO controls), LCK
T5 construct: purchased Reaction Biology Corporation
T5 sequence (P06239 whole entry): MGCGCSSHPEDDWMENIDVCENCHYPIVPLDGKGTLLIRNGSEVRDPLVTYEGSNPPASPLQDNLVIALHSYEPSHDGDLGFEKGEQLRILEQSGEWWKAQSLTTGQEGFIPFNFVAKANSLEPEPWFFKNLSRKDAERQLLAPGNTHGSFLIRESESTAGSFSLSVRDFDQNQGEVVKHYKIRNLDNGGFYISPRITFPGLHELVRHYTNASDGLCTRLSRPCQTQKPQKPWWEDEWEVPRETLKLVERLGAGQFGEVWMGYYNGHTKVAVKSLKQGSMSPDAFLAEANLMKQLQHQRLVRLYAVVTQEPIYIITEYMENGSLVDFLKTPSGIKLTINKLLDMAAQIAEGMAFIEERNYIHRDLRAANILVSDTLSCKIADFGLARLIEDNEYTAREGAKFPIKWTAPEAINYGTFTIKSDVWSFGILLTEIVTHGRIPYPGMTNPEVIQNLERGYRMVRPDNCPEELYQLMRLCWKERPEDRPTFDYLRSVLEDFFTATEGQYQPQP

[6] = target: T6, panel of 374 wild-type kinases (Homo sapiens, UniProt Q9BYP7); details: read-out: % Enzyme Activity (relative to DMSO controls), kinase WNK3
T6 construct: purchased Reaction Biology Corporation
T6 sequence (Q9BYP7 whole entry): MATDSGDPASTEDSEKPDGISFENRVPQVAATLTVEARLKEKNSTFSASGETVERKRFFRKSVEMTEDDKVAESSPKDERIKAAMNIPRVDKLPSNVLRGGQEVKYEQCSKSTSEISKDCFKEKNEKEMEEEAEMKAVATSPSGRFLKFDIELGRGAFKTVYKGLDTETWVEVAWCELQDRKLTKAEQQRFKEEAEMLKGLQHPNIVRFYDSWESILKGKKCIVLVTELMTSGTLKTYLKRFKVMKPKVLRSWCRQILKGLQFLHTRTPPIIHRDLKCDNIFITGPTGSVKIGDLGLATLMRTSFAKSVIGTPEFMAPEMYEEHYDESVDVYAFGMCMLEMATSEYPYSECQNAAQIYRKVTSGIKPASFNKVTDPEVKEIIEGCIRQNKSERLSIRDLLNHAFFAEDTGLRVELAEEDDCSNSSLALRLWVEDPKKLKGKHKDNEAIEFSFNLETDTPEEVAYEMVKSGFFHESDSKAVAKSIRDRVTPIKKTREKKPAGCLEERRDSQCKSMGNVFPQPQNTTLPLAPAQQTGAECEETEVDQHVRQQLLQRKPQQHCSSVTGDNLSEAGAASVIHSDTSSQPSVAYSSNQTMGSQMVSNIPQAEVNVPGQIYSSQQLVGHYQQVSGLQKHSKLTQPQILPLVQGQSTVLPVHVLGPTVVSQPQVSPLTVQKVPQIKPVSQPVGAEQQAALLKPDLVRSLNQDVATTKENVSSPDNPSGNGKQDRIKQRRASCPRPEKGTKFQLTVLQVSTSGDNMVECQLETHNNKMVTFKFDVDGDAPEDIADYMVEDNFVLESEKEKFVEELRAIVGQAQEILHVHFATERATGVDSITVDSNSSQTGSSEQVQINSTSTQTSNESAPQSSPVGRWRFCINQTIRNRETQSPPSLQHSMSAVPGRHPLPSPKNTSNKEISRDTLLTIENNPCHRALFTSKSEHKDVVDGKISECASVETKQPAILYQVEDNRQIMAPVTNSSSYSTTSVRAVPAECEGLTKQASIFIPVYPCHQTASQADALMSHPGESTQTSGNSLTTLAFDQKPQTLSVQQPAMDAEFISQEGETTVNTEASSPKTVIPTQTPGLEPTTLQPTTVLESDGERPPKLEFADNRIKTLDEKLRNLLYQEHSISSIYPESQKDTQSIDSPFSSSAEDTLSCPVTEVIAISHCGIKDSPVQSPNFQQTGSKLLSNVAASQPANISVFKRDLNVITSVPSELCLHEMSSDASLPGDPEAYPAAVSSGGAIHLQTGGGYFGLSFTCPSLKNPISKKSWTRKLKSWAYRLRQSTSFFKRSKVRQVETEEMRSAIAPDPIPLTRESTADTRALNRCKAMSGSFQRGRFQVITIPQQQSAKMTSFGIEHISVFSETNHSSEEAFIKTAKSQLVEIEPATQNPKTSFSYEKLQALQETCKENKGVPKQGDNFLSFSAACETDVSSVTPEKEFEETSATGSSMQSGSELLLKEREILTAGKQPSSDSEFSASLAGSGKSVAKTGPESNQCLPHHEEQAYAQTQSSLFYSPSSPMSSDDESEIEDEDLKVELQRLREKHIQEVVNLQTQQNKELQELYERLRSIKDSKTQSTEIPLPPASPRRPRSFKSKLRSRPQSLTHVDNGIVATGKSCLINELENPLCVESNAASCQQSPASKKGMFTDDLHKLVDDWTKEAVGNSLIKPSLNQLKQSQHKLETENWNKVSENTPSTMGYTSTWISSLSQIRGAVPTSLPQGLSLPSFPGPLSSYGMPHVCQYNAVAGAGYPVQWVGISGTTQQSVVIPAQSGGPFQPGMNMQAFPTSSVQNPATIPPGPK

[7] = target: T7, panel of 374 wild-type kinases (Homo sapiens, UniProt Q15375); details: read-out: % Enzyme Activity (relative to DMSO controls), EPHA7
T7 construct: purchased Reaction Biology Corporation
T7 sequence (Q15375 28-998): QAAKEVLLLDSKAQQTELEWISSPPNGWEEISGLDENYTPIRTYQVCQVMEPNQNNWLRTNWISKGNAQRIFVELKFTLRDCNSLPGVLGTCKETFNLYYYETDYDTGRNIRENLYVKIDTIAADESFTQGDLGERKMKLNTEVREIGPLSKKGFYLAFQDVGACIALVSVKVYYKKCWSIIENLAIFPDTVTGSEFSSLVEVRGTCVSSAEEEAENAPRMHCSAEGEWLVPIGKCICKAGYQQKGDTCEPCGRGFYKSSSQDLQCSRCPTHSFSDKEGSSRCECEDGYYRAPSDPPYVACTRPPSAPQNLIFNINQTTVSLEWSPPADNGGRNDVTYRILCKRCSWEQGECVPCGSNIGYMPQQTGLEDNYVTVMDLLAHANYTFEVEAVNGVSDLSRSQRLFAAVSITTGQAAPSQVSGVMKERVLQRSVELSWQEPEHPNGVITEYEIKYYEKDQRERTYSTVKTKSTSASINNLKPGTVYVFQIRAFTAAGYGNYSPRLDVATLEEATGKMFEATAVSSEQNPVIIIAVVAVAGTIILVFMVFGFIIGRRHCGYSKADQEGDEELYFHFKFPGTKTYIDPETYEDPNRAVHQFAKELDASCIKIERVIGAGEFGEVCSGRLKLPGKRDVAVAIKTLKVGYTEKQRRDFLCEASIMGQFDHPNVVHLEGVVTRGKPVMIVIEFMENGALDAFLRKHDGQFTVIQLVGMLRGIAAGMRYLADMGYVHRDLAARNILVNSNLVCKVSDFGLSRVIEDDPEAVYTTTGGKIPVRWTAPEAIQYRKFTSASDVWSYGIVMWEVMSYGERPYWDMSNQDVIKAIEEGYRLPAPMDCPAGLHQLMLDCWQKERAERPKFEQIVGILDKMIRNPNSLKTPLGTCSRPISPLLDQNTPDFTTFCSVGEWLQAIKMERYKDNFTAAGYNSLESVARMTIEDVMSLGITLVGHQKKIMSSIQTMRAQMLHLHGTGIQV

[8] = target: T8, panel of 374 wild-type kinases (Homo sapiens, UniProt Q04912); details: read-out: % Enzyme Activity (relative to DMSO controls), kinase RON/MST1R
T8 construct: purchased Reaction Biology Corporation
T8 sequence (Q04912 25-1400): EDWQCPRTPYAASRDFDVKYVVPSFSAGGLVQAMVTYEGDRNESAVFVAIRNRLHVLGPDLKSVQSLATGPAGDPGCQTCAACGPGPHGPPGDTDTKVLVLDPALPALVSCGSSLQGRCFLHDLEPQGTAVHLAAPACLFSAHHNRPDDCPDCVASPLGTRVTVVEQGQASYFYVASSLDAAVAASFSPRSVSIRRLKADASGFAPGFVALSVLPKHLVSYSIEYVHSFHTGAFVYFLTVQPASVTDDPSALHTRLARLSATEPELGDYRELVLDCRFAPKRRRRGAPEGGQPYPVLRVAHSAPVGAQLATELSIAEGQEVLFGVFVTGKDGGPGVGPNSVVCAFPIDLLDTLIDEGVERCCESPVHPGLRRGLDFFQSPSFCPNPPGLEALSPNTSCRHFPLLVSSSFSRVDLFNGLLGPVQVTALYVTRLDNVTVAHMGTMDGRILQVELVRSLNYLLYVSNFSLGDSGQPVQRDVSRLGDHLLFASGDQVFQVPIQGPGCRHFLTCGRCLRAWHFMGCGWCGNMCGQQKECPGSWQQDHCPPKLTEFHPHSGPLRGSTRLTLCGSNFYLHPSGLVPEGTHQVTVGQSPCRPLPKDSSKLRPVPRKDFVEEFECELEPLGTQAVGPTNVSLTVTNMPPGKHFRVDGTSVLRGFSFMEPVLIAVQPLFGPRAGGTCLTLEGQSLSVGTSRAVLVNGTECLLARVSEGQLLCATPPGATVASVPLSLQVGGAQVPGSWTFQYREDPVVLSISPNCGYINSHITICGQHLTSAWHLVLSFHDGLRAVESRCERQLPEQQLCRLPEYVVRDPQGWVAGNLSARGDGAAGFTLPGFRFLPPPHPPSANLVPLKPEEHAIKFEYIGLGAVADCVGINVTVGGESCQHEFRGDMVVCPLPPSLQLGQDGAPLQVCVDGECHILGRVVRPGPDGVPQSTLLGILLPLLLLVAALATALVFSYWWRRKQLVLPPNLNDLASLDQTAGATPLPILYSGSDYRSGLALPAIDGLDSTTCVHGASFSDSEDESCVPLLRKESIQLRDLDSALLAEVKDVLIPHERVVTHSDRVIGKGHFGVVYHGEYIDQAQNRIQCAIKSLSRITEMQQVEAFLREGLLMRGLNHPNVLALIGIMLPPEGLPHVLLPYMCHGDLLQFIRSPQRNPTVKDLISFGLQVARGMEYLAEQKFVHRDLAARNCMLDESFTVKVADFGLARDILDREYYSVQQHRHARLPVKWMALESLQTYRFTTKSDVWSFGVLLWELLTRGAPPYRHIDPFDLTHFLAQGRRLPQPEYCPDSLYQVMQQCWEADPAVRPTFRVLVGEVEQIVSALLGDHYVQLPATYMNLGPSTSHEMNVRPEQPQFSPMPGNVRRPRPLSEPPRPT

[9] = target: T9, panel of 374 wild-type kinases (Homo sapiens, UniProt Q9UBE8); details: read-out: % Enzyme Activity (relative to DMSO controls), NLK
T9 construct: purchased Reaction Biology Corporation
T9 sequence (Q9UBE8 1-527): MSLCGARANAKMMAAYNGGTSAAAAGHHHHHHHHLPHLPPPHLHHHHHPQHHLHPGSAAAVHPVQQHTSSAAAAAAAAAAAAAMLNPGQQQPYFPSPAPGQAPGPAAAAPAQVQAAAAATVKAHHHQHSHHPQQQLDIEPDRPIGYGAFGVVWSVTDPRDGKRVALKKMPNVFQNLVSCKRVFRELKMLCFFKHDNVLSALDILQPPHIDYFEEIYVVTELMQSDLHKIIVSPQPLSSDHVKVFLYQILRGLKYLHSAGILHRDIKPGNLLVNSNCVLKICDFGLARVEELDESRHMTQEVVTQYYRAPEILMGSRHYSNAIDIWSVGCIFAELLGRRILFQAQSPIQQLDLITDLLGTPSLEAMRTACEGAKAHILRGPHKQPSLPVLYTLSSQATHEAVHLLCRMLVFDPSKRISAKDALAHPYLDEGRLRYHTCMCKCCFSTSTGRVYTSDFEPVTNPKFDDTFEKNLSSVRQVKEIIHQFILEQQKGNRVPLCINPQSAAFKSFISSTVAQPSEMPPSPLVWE

[10] = target: T10, panel of 374 wild-type kinases (Homo sapiens, UniProt Q9Y5S2); details: read-out: % Enzyme Activity (relative to DMSO controls), MRCKb/CDC42BPB
T10 construct: purchased Reaction Biology Corporation

[11] = target: T11, panel of 374 wild-type kinases (Homo sapiens, UniProt Q99986); details: read-out: % Enzyme Activity (relative to DMSO controls), kinase VRK1
T11 construct: purchased Reaction Biology Corporation
T11 sequence (Q99986 1-396): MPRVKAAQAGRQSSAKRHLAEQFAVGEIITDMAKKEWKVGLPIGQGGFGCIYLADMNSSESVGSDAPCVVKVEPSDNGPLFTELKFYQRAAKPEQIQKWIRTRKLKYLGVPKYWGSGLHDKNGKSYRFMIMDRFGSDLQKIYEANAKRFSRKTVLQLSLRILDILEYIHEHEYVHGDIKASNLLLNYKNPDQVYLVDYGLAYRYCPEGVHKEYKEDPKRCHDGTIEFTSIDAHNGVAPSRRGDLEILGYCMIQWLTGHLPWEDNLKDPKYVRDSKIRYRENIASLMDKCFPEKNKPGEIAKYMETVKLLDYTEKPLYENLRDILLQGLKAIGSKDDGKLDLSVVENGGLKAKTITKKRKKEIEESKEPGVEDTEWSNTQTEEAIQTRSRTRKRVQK

T1 sequence (P49137 whole entry): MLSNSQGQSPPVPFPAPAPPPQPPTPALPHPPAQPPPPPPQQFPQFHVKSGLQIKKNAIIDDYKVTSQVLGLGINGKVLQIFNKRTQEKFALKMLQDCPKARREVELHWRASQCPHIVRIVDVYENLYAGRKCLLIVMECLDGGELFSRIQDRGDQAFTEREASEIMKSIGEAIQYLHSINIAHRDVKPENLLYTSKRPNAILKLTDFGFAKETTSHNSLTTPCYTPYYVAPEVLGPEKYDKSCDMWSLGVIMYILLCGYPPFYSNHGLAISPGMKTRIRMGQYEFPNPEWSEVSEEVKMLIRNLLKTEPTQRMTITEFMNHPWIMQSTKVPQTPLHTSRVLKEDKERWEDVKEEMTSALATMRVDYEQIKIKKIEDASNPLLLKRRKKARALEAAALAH

Question: Which results are given for `O=C(Nc1cnn(-c2csc(C(=O)NC3COC3)c2)c1)Nc1ccccc1Cl` [Compound 17, 4-(4-(3-(2-chlorophenyl)ureido)-1H-pyrazol-1-yl)-N-(oxetan-3-yl)thiophene-2-carboxamide]?
Answer: remaining activity at 5 µM [1]: 97.1%; remaining activity at 5 µM [2]: 120%; remaining activity at 5 µM [3]: 142%; remaining activity at 5 µM [4]: 104%; remaining activity at 5 µM [5]: 99.1%; remaining activity at 5 µM [6]: 99.5%; remaining activity at 5 µM [7]: 103%; remaining activity at 5 µM [8]: 108%; remaining activity at 5 µM [9]: 99.5%; remaining activity at 5 µM [10]: 97.1%; remaining activity at 5 µM [11]: 109%

Question: `Cc1sc(C(=O)NC2COC2)cc1-n1cc(NC(=O)Nc2c(F)cccc2Cl)cn1` [Compound 27, 4-(4-(3-(2-chloro-6-fluorophenyl)ureido)-1H-pyrazol-1-yl)-5-methyl-N-(oxetan-3-yl)thiophene-2-carboxamide] was tested. Which remaining activity at 10 µM ([1]; 10 uM) did it give?
Answer: 93.6%

Question: And the remaining activity at 10 µM ([2]; 10 uM)?
Answer: 93.9%

Question: What about the remaining activity at 10 µM ([3]; 10 uM) of the same compound?
Answer: 93.2%

Question: What about the remaining activity at 10 µM ([4]; 10 uM) of the same compound?
Answer: 104%

Question: What about the remaining activity at 10 µM ([5]; 10 uM) of the same compound?
Answer: 46.5%

Question: And the remaining activity at 10 µM ([6]; 10 uM)?
Answer: 102%

Question: And the remaining activity at 10 µM ([7]; 10 uM)?
Answer: 98.6%

Question: What about the remaining activity at 10 µM ([8]; 10 uM) of the same compound?
Answer: 96.9%

Question: What about the remaining activity at 10 µM ([9]; 10 uM) of the same compound?
Answer: 85.2%

Question: What about the remaining activity at 10 µM ([10]; 10 uM) of the same compound?
Answer: 112%

Question: What about the remaining activity at 10 µM ([11]; 10 uM) of the same compound?
Answer: 109%

Question: `O=C(Nc1cnn(-c2csc(C(=O)NC3COC3)c2)c1)Nc1c(F)cccc1Cl` [Compound 25, 4-(4-(3-(2-chloro-6-fluorophenyl)ureido)-1H-pyrazol-1-yl)-N-(oxetan-3-yl)thiophene-2-carboxamide] was tested. Which remaining activity at 5 µM [1] did it give?
Answer: 99.8%

Question: What about the remaining activity at 5 µM [2] of the same compound?
Answer: 93.2%

Question: What about the remaining activity at 5 µM [3] of the same compound?
Answer: 105%

Question: And the remaining activity at 5 µM [4]?
Answer: 58.5%

Question: And the remaining activity at 5 µM [5]?
Answer: 94.2%

Question: And the remaining activity at 5 µM [6]?
Answer: 91.8%

Question: And the remaining activity at 5 µM [7]?
Answer: 91.2%

Question: And the remaining activity at 5 µM [8]?
Answer: 100%

Question: What about the remaining activity at 5 µM [9] of the same compound?
Answer: 87.4%

Question: And the remaining activity at 5 µM [10]?
Answer: 89%

Question: What about the remaining activity at 5 µM [11] of the same compound?
Answer: 91.9%
